From the NIST ThermoML archive (doi:10.1016/j.jct.2011.04.006)
Where “and” joins values, the source holds several entries; their conditions need not be identical. Equal values may be shown once. ± gives the expanded uncertainty stated by the source.

Columns and labels:
[1] = 298.15 K; 101.33 kPa; Liquid; Vibrating tube method
[2] = excess molar enthalpy (molar enthalpy of mixing); xn = mol fraction of the nth substance listed; conditions: 298.15 K, 101 kPa, Liquid, Flow calorimetry

CCC(C)(C)C [2,2-dimethylbutane]
Conditions | mass density [kg/m3]
[1] | 644.588 ± 0.26

CCC(C)(C)C [2,2-dimethylbutane] + CCCCOCCCC
[2]
Conditions | excess molar enthalpy [kcal/mol]
x2 = 0.05 | 0.0065 ± 0.000263
x2 = 0.1 | 0.0112 ± 0.000287
x2 = 0.1499 | 0.015 ± 0.000311
x2 = 0.2001 | 0.018 ± 0.000359
x2 = 0.2502 | 0.0205 ± 0.000382
x2 = 0.2996 | 0.0224 ± 0.000406
x2 = 0.3501 | 0.0237 ± 0.000406
x2 = 0.3998 | 0.0246 ± 0.00043
x2 = 0.4497 | 0.0249 ± 0.00043
x2 = 0.5003 | 0.0246 ± 0.00043
x2 = 0.5004 | 0.0245 ± 0.00043
x2 = 0.5499 | 0.0239 ± 0.000406
x2 = 0.6002 | 0.0228 ± 0.000406
x2 = 0.6498 | 0.0213 ± 0.000382
x2 = 0.6999 | 0.0197 ± 0.000359
x2 = 0.7501 | 0.0173 ± 0.000335
x2 = 0.8 | 0.0149 ± 0.000311
x2 = 0.85 | 0.0119 ± 0.000287
x2 = 0.9 | 0.0088 ± 0.000263
x2 = 0.95 | 0.00528 ± 0.000239

CCC(C)(C)C [2,2-dimethylbutane] + CCCOCCC
[2]
Conditions | excess molar enthalpy [kcal/mol]
x2 = 0.05 | 0.00906 ± 0.000287
x2 = 0.1 | 0.0163 ± 0.000359
x2 = 0.15 | 0.0214 ± 0.000406
x2 = 0.2 | 0.0261 ± 0.000454
x2 = 0.2499 | 0.0298 ± 0.000478
x2 = 0.2998 | 0.0328 ± 0.000526
x2 = 0.3499 | 0.0349 ± 0.00055
x2 = 0.3998 | 0.036 ± 0.00055
x2 = 0.4501 | 0.037 ± 0.000574
x2 = 0.4995 | 0.037 ± 0.000574
x2 = 0.5497 | 0.0361 ± 0.00055
x2 = 0.6001 | 0.0347 ± 0.00055
x2 = 0.65 | 0.0325 ± 0.000526
x2 = 0.7001 | 0.0298 ± 0.000478
x2 = 0.7503 | 0.0265 ± 0.000454
x2 = 0.8001 | 0.0226 ± 0.000406
x2 = 0.85 | 0.0179 ± 0.000359
x2 = 0.9 | 0.0127 ± 0.000311
x2 = 0.95 | 0.00676 ± 0.000263

CC(C)C(C)C [2,3-dimethylbutane]
Conditions | mass density [kg/m3]
[1] | 657.023 ± 0.26

CC(C)C(C)C [2,3-dimethylbutane] + CCCCOCCCC
[2]
Conditions | excess molar enthalpy [kcal/mol]
x2 = 0.05 | 0.00607 ± 0.000239
x2 = 0.1 | 0.0104 ± 0.000287
x2 = 0.1501 | 0.0141 ± 0.000311
x2 = 0.2 | 0.0172 ± 0.000335
x2 = 0.2502 | 0.0196 ± 0.000359
x2 = 0.3 | 0.0215 ± 0.000382
x2 = 0.3499 | 0.0228 ± 0.000406
x2 = 0.3998 | 0.0238 ± 0.000406
x2 = 0.4501 | 0.0243 ± 0.00043
x2 = 0.5 | 0.0243 ± 0.00043
x2 = 0.5002 | 0.0242 ± 0.000406
x2 = 0.5493 | 0.0239 ± 0.000406
x2 = 0.5999 | 0.0229 ± 0.000406
x2 = 0.6501 | 0.0217 ± 0.000382
x2 = 0.7 | 0.02 ± 0.000382
x2 = 0.75 | 0.0181 ± 0.000359
x2 = 0.8001 | 0.0159 ± 0.000335
x2 = 0.85 | 0.0133 ± 0.000311
x2 = 0.9001 | 0.0101 ± 0.000263
x2 = 0.95 | 0.00672 ± 0.000239

CC(C)C(C)C [2,3-dimethylbutane] + CCCOCCC
[2]
Conditions | excess molar enthalpy
x2 = 0.05 | 0.00846 ± 0.000287 kcal/mol
x2 = 0.1 | 0.0152 ± 0.000335 kcal/mol
x2 = 0.15 | 0.0206 ± 0.000382 kcal/mol
x2 = 0.2001 | 0.0252 ± 0.00043 kcal/mol
x2 = 0.25 | 0.0288 ± 0.000478 kcal/mol
x2 = 0.3001 | 0.0321 ± 0.000502 kcal/mol
x2 = 0.3499 | 0.0346 ± 0.00055 kcal/mol
x2 = 0.4 | 0.0364 ± 0.000574 kcal/mol
x2 = 0.4498 | 0.0374 ± 0.000574 kcal/mol
x2 = 0.4998 | 0.0377 kcal/mol and 0.0376 kcal/mol
x2 = 0.55 | 0.0372 ± 0.000574 kcal/mol
x2 = 0.5999 | 0.0359 ± 0.00055 kcal/mol
x2 = 0.6501 | 0.034 ± 0.000526 kcal/mol
x2 = 0.7 | 0.0314 ± 0.000502 kcal/mol
x2 = 0.7502 | 0.028 ± 0.000478 kcal/mol
x2 = 0.8 | 0.0242 ± 0.00043 kcal/mol
x2 = 0.85 | 0.0193 ± 0.000382 kcal/mol
x2 = 0.9 | 0.0138 ± 0.000335 kcal/mol
x2 = 0.95 | 0.0075 ± 0.000287 kcal/mol

CCCOCCC [dipropyl ether]
Conditions | mass density [kg/m3]
[1] | 741.977 ± 0.24
